In patent US7183319B2 (priority 2000, dated 2007):
Entries after “also recorded” stand apart in the source; their conditions may differ.

Assays:
mushroom tyrosinase = format: biochemical; settings: for oxidation rate (Rmax) by tyrosinase: pH 7.4
[1] = bovine
in vitro = settings: bovine, serum

SMILES	quality as tyrosinase substrate / oxidation rate in words (mushroom tyrosinase)	% decomposition over time, 1 hr [1]	% decomposition over time, 2 hrs [1]	% decomposition over time, 3 hrs [1]	further results
COC(=O)[C@@H](Cc1ccc(O)c(O)c1)NC(=O)Oc1ccc(N(CCCl)CCCl)cc1 [prodrug 16, (R)-[1′-Amino-2′-(3,4′-hydroxyphenyl)ethanonic acid methyl ester]-carbamic acid p-(bis-2-chloroethylamino) phenyl ester]					oxidation by tyrosinase within incubation period (mushroom tyrosinase): not oxidized by tryorinase; also recorded: not oxidised by tyrosinase
O=C(NCCc1ccc(O)c(O)c1)Oc1ccc(N(CCCl)CCCl)cc1 [prodrug 10, {2′-(3″,4″-Dihydroxyphenyl)-ethyl} carbamic acid p-(bis-2-chloroethylamino) phenyl ester]	good substrates				
COC(=O)[C@H](Cc1ccc(O)cc1)NC(=S)Oc1ccc(N(CCCl)CCCl)cc1 [2.2.1]		52%	92%	100%	half-life (in vitro): ~1.5 h
COc1cccc2c1C(=O)c1c(O)c3c(c(O)c1C2=O)C[C@@](O)(C(C)=O)C[C@@H]3OC1CC(NC(=O)NCCc2ccc(O)cc2)C(O)C(C)O1 (stereo partly drawn) [1.1.5]	poor substrate	0%	0%	0%	% decomposition over time, 4 hrs [1]: 0%; % decomposition over time, 6 hrs [1]: 0%; % decomposition over time, 12 hrs [1]: 0%; % decomposition over time, 24 hrs [1]: 0%; % decomposition over time, 48 hrs [1]: 0%
O=C(NCCc1ccc(O)cc1)Oc1ccc(N(CCCl)CCCl)cc1 [prodrug 9, {2′-(4″-Hydroxyphenyl)ethyl} carbamic acid p-(bis-2-chloroethylamino)phenyl ster]	good substrates				
O=C(NCCc1ccc(O)cc1)Oc1ccc(N(CCCl)CCCl)cc1 [1.1.1]		7%	44%	61%	% decomposition over time, 4 hrs [1]: 74%; % decomposition over time, 6 hrs [1]: 100%; half-life (in vitro): ~2.5 h
O=C(NCCSc1ccc(O)cc1)Oc1ccc(N(CCCl)CCCl)cc1 [prodrug 22]					oxidation rate (Rmax) by tyrosinase (mushroom tyrosinase): 7.5 nmol/min
O=C(NCCc1ccc(O)cc1)Oc1ccc(N(CCCl)CCCl)cc1 [prodrug 21, {2′-(4″-Hydroxyphenyl)ethylamine) carbamic acid p-(bis-2-chloroethylamino) phenyl ester]					oxidation rate (Rmax) by tyrosinase (mushroom tyrosinase): 7.5 nmol/min
